In patent US20060159676A1, “Methods for modulating angiogenesis, lymphangiogenesis, and apoptosis with apelin compositions” (priority 2005, published 2006):

Columns and labels:
[1] = tested on: endothelial cells; conditions: apelin 10 ng/ml, after 48 hours serum starvation; VEGF 50 ng/ml as comparison
Description: To determine what effect, if any, apelin expression has on apoptosis, TUNEL assays were performed. […] Cells were stained with a DAPI stain (FIG. 21, Panels A, B, and C) or in the TUNEL assay which stains for broken DNA, indicating cells undergoing apoptosis (FIG. 21, Panels D, E, and F).

[2] = tested on: lymphatic vessels; assay: In vivo lymphatic vessel branching assay, quail CAM; conditions: collagen disk with 50 ng apelin or 100 ng VEGF-C on CAM of 7 day quail embryos, 18 hours
Description: All experiments were carried out using chorioallantoic membranes (CAMs) of quail embryos. Quail embryos used for the lymphatic experiments were 7 days old. Collagen purified from rat tails (Bernanke and Markwald, 1982) was polymerized in 2 mm disks at a final concentration of approximately 1.6 mg/ml in standard phosphate buffered saline (PBS). The total volume of the collagen disk was approximately 10 μl. For experimental treatments, the collagen disks were supplemented with either 50 ng of apelin peptide or 100 ng of VEGF-C protein prior to polymerization at 37° C. for 30 minutes. The VEGF-C was a positive control for these experiments. (Recombinant Human VEGF-C (Cys156Ser), R&D Systems, cat # 752-vc). Apelin peptide was synthesized by Sigma-Genosys (>90% purity).
For lymphangiogenesis assays, the CAMs of 7 day quail embryos were exposed, in ovo, and the collagen disks were placed directly onto the surface of the CAM. […]
The samples were incubated with primary antibody (Prox1, Research Diagnostics, cat # RDI-102PA30, diluted to 2 μg/ml final concentration) for 4 hours at room temperature or overnight at 4° C. […] Both the lymphatic cell number as well as the number of lymphatic branches were determined.
Both blood vessels and lymphatic vessels were stained with the QH-1 antibody. […] The number of lymphatic vessels branching away from blood vessels (towards the collagen disk) were counted. […]

[3] = tested on: mouse endothelial cells (bEnd3); assay: bEnd3 endothelial cell proliferation (BrdU incorporation); assay type: cell-based; conditions: apelin 10 ng/ml or VEGF 50 ng/ml; 0.1 ng/ml to 1 μg/ml (FIG. 17)
Description: Similar cellular proliferation assays were performed using mouse endothelial cells (bEnd3) that constitutively express APJ. […] SU1498 was included in proliferation cultures at a 25 μM concentration, and results were assayed using BrdU incorporation.
Proliferation inhibition experiments with the bEnd3 cells also were carried out using FGF (50 ng/ml) or the FGF pathway inhibitor SU5402 (FIG. 19). SU5402 was included in proliferation cultures at a 20 μM concentration, and results were assayed using BrdU incorporation.

[4] = tested on: BAE/APJ#2 cells; conditions: 10 ng/ml in bottom chamber, 16 hours
Description: Bovine aortic endothelial cells (BAE) were cultured in DMEM supplemented with 10% fetal bovine serum (FBS) and penicillin/streptomycin. For generation of stable cell lines expressing APJ, the mouse APJ coding region was cloned into the pcDNA 3.1 vector downstream of the CMV promoter, in frame with a myc epitope at the C-terminal end of the protein, and upstream of the neomycin gene. Bovine aortic endothelial (BAE) cells were transfected with this construction using the Superfect transfection kit (Qiagen) and selected for resistance to G418 (600 μg/ml). Colonies were isolated and screened using RT-PCR for expression of mouse APJ and also by immunocytochemistry for expression of the myc epitope.
Cell migration assays were performed using Transwell cell culture migration chambers (Becton Dickinson) with 8 micron pore size. BAE/APJ#2 cells were plated in serum free conditions in 100 μl at a concentration of 1×10^5 ml in the upper chamber of the migration chamber. Following cell attachment to the membrane, 10 ng/ml of growth factor was added to the bottom chamber, in a total volume of 0.5 ml. […] Cells attached to the membrane in the lower chamber were stained with DAPI, and 3 random fields were counted for each experimental condition.

[5] = tested on: VEGF mRNA expression; conditions: apelin-soaked bead, frog embryo
Description: Beads were microsurgically implanted in an avascular region, the posterior lateral mesoderm, of stage 24-26 embryos. Embryos were cultured in 0.2× MMR until stage 35-37, at which time they were prepared for whole mount in situ hybridization analysis as described in Example 2. The embryonic vascular system was visualized using an antisense probe directed against transcripts encoding the Xenopus vascular marker, erg (Baltzinger et al., 1999, Dev. Dyn. 216:420-33).

Substance: Apelin-13
- apoptosis (TUNEL staining) [1]: anti-apoptotic effect on endothelial cells, to the same extent as VEGF
- number of lymphatic vessels branching away from blood vessels [2]: positive regulator of lymphatic branching angiogenesis
- cellular proliferation of endothelial cells [3]: induces the cellular proliferation of endothelial cells
- endothelial cell migration (cells per field) [4]: promotes endothelial cell migration
- VEGF expression in the vicinity of the bead [5]: no upregulation of VEGF expression
